Results on 29 compounds are retold here after patent US10329302B2, “Bicyclic-fused heteroaryl or aryl compounds” (Pfizer Inc., priority 2014, dated 2019).

The target in experiment [1] is human IRAK4 FL (Full Length) (Homo sapiens (Human), UniProt Q9NWZ3). Put plainly: IRAK4 Enzymatic DELFIA Assay, Protocol A. It counts as biochemical. The note with it: human IRAK4 FL, 0.6 mM ATP (KM); read-out: IRAK4 DELFIA Protocol A IC50.
The test system of experiment [2] is R848-induced TNFα production by human peripheral blood mononuclear cells (PBMCs). The experiment can be described thus: R848 Induced TNFα in Human PBMC Assay. The note with it: Homo sapiens, PBMC, 3 h, read-out: R848-induced TNFa PBMC IC50 (nM). It counts as cell-based.

Chain of human IRAK4 FL (Full Length) (Q9NWZ3 whole entry): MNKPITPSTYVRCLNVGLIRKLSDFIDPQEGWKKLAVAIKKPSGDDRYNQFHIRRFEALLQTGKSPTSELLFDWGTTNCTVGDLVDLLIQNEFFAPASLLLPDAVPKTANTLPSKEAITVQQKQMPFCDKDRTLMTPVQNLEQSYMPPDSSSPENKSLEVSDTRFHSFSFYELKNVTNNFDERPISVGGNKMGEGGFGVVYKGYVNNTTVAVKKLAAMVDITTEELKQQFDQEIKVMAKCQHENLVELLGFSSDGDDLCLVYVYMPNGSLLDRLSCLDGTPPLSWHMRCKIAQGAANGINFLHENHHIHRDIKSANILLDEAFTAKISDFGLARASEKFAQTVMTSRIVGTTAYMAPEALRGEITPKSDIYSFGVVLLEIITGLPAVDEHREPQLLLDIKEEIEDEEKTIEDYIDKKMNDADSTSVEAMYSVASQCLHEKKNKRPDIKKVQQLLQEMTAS

For orientation: IC50 means the point on the concentration scale where inhibition reaches its midpoint. In the case of `COc1cc2c(OC[C@H]3NC(=O)[C@]4(F)C[C@H]34)ccnc2cc1C(N)=O` [Example 325, 4-{[(1R,2S,5S)-5-fluoro-4-oxo-3-azabicyclo[3.1.0]hex-2-yl]methoxy}-6-methoxyquinoline-7-carboxamide], the figures for the concentration for half-maximal inhibition (IC50) in experiment [1] and in experiment [2] were 0.4 nM and 87 nM, respectively.
For the compound `COc1cc2c(OC[C@H]3NC(=O)[C@@H]4C[C@H]34)ccnc2cc1C(N)=O` [Example 326, 6-methoxy-4-{[(1S,2S,5R)-4-oxo-3-azabicyclo[3.1.0]hex-2-yl]methoxy}quinoline-7-carboxamide], the IC50 was found to be 1.2 nM in experiment [1] and 1200 nM in experiment [2].
For `COc1cc2c(OC[C@H]3NC(=O)[C@@H]4[C@@H](CO)[C@@H]43)nccc2cc1C(N)=O` [Example 327, 1-{[(1S,2S,5S)-6-(hydroxymethyl)-4-oxo-3-azabicyclo[3.1.0]hex-2-yl]methoxy}-7-methoxyisoquinoline-6-carboxamide] the same measures were 20 nM and 3310 nM.
For `C=C[C@H]1CC(=O)N[C@@H]1COc1nccc2cc(C(N)=O)c(OC)cc12` [Example 329, 1-{[(2S,3R)-3-ethenyl-5-oxopyrrolidin-2-yl]methoxy}-7-methoxyisoquinoline-6-carboxamide] the same measures were 13 nM and 252 nM.
For `COc1cc2c(OC[C@H]3NC(=O)CC34CC4)nccc2cc1C(N)=O` [Example 330, 7-methoxy-1-{[(4S)-6-oxo-5-azaspiro[2.4]hept-4-yl]methoxy}isoquinoline-6-carboxamide] the same measures were 14 nM and 134 nM.
As to `COc1cc2c(OC[C@H]3NC(=O)[C@@H]4[C@@H](CF)[C@@H]43)ccnc2cc1C(N)=O` [Example 333, 4-{[(1R,2S,5S)-6-(fluoromethyl)-4-oxo-3-azabicyclo[3.1.0]hex-2-yl]methoxy}-6-methoxyquinoline-7-carboxamide], the IC50 in experiment [1] turned out to be 0.3 nM; in experiment [2] it was 182 nM.
For `COc1cc2c(OC[C@H]3NC(=O)[C@H]4[C@@H]3[C@]4(C)F)nccc2cc1C(N)=O` [Example 335, 1-{[(1S,2S,5R)-6-fluoro-6-methyl-4-oxo-3-azabicyclo[3.1.0]hex-2-yl]methoxy}-7-methoxyisoquinoline-6-carboxamide] the same measures were 4 nM and 746 nM.
For `COc1cc2c(OC[C@H]3NC(=O)[C@H]4[C@@H]3[C@@]4(C)F)nccc2cc1C(N)=O` [Example 336, 1-{[(1S,2S,5R)-6-fluoro-6-methyl-4-oxo-3-azabicyclo[3.1.0]hex-2-yl]methoxy}-7-methoxyisoquinoline-6-carboxamide] the same measures were 0.3 nM and 674 nM.
For `CC[C@@H]1[C@H](F)C(=O)N[C@@H]1COc1nccc2cc(C(N)=O)c(OCCOC)cc12` [Example 339, 1-{[(2S,3S,4S)-3-ethyl-4-fluoro-5-oxopyrrolidin-2-yl]methoxy}-7-(2-methoxyethoxy)isoquinoline-6-carboxamide], the IC50 is 90 nM in experiment [1] and 269 nM in experiment [2].
For `COC[C@@H]1CC(=O)N[C@@H]1COc1nccc2cc(C(N)=O)c(OC)cc12` [Example 340, 7-methoxy-1-{[(2S,3R)-3-(methoxymethyl)-5-oxopyrrolidin-2-yl]methoxy}isoquinoline-6-carboxamide], the figures for the IC50 in experiment [1] and in experiment [2] were 12 nM and 456 nM, respectively.
For `CC[C@@H]1[C@H](F)C(=O)N[C@@H]1COc1ncnc2cc(C(N)=O)c(OC)cc12` [Example 341, 4-{[(2S,3S,4S)-3-ethyl-4-fluoro-5-oxopyrrolidin-2-yl]methoxy}-6-methoxyquinazoline-7-carboxamide] the same measures were 0.3 nM and 16 nM.
As for `CC[C@@H]1[C@H](OC)C(=O)N[C@@H]1COc1nccc2cc(C(N)=O)c(OC)cc12` [Example 342, 1-{[(2S,3S,4S)-3-ethyl-4-methoxy-5-oxopyrrolidin-2-yl]methoxy}-7-methoxyisoquinoline-6-carboxamide], the results for the IC50 in experiment [1] and in experiment [2] were 1000 nM and 2380 nM, respectively.
On to `CC[C@H]1[C@@H](COc2nccc3cc(C(N)=O)c(OC)cc23)NC(=O)[C@@H]1OC` [Example 343, 1-{[(2S,3S,4R)-3-ethyl-4-methoxy-5-oxopyrrolidin-2-yl]methoxy}-7-methoxyisoquinoline-6-carboxamide], for which the figures for the IC50 in experiment [1] and in experiment [2] were 41 nM and 408 nM, respectively.
For `CC[C@H]1[C@@H](COc2nccc3cc(C(N)=O)c(OC)cc23)NC(=O)C1(F)F` [Example 345, 1-{[(2S,3S)-3-ethyl-4,4-difluoro-5-oxopyrrolidin-2-yl]methoxy}-7-methoxyisoquinoline-6-carboxamide] the same measures were 0.2 nM and 1.6 nM.
With `COC[C@H]1[C@@H](COc2nccc3cc(C(N)=O)c(OC)cc23)NC(=O)C1(F)F` [Example 347, 1-{[(2S,3R)-4,4-difluoro-3-(methoxymethyl)-5-oxopyrrolidin-2-yl]methoxy}-7-methoxyisoquinoline-6-carboxamide], the values for the half-inhibitory concentration (IC50) in experiment [1] and in experiment [2] were 0.6 nM and 27 nM, respectively.
As to `COC[C@@H]1[C@H](F)C(=O)N[C@@H]1COc1nccc2cc(C(N)=O)c(OC)cc12` [Example 348, 1-{[(2S,3R,4S)-4-fluoro-3-(methoxymethyl)-5-oxopyrrolidin-2-yl]methoxy}-7-methoxyisoquinoline-6-carboxamide], the IC50 in experiment [1] stood at 0.7 nM; in experiment [2] it was 42 nM.
For `COc1cc2c(OC[C@H]3NC(=O)[C@@H](OC)[C@H]3C)nccc2cc1C(N)=O` [Example 349, 7-methoxy-1-{[(2S,3S,4S)-4-methoxy-3-methyl-5-oxopyrrolidin-2-yl]methoxy}isoquinoline-6-carboxamide] the same measures were 2960 nM and 9460 nM.
Consider `COc1cc2c(OC[C@H]3NC(=O)[C@H](OC)[C@H]3C)nccc2cc1C(N)=O` [Example 350, 7-methoxy-1-{[(2S,3S,4R)-4-methoxy-3-methyl-5-oxopyrrolidin-2-yl]methoxy}isoquinoline-6-carboxamide], for which the IC50 was found to be 58 nM in experiment [1] and 568 nM in experiment [2].
Turning to `COC[C@H]1[C@@H](COc2nccc3cc(C(N)=O)c(OC)cc23)NC(=O)[C@@H]1F` [Example 351, 1-{[(2S,3R,4R)-4-fluoro-3-(methoxymethyl)-5-oxopyrrolidin-2-yl]methoxy}-7-methoxyisoquinoline-6-carboxamide], the IC50 came to 6.3 nM in experiment [1] and 213 nM in experiment [2].
Turning to `CC[C@@H]1[C@H](O)C(=O)N[C@@H]1COc1nccc2cc(C(N)=O)c(OC)cc12` [Example 352, 1-{[(2S,3S,4S)-3-ethyl-4-hydroxy-5-oxopyrrolidin-2-yl]methoxy}-7-methoxyisoquinoline-6-carboxamide], the figures for the IC50 in experiment [1] and in experiment [2] were 3.3 nM and 557 nM, respectively.
Regarding `CC[C@H]1[C@@H](COc2nccc3cc(C(N)=O)c(OC)cc23)NC(=O)[C@@H]1O` [Example 353, 1-{[(2S,3S,4R)-3-ethyl-4-hydroxy-5-oxopyrrolidin-2-yl]methoxy}-7-methoxyisoquinoline-6-carboxamide], the IC50 in experiment [1] came to 0.5 nM; in experiment [2], 20 nM.
In the case of `COc1cc2c(OC[C@H]3NC(=O)C[C@H]3CCF)nccc2cc1C(N)=O` [Example 355, 1-{[(2S,3S)-3-(2-fluoroethyl)-5-oxopyrrolidin-2-yl]methoxy}-7-methoxyisoquinoline-6-carboxamide], the values for the IC50 in experiment [1] and in experiment [2] were 1.7 nM and 33 nM, respectively.
For `CC[C@@H]1[C@H](N)C(=O)N[C@@H]1COc1nccc2cc(C(N)=O)c(OC)cc12` [Example 356, 1-{[(2S,3R,4S)-4-amino-3-ethyl-5-oxopyrrolidin-2-yl]methoxy}-7-methoxyisoquinoline-6-carboxamide], the IC50 in experiment [1] is 115 nM; in experiment [2] it was 594 nM.
For `CC[C@H]1[C@@H](COc2nccc3cc(C(N)=O)c(OC)cc23)NC(=O)[C@@H]1N` [Example 357, 1-{[(2S,3R,4R)-4-amino-3-ethyl-5-oxopyrrolidin-2-yl]methoxy}-7-methoxyisoquinoline-6-carboxamide] the same measures were 30 nM and 588 nM.
With `CC[C@@H]1[C@H](F)C(=O)N[C@@H]1COc1nccc2cc(C(N)=O)c(OC(C)C)cc12` [Example 358, 1-{[(2S,3S,4S)-3-ethyl-4-fluoro-5-oxopyrrolidin-2-yl]methoxy}-7-(propan-2-yloxy)isoquinoline-6-carboxamide], the results for the IC50 in experiment [1] and in experiment [2] were 0.4 nM and 1.3 nM, respectively.
Consider `CCOc1cc2c(OC[C@H]3NC(=O)[C@@H](F)[C@H]3CC)nccc2cc1C(N)=O` [Example 359, 7-ethoxy-1-{[(2S,3S,4S)-3-ethyl-4-fluoro-5-oxopyrrolidin-2-yl]methoxy}isoquinoline-6-carboxamide], for which the half-inhibitory concentration (IC50) in experiment [1] turned out to be 0.4 nM; in experiment [2], 3.9 nM.
For `CC[C@@H]1[C@H](F)C(=O)N[C@@H]1COc1ncc(F)c2cc(C(N)=O)c(OC)cc12` [Example 360, 1-{[(2S,3S,4S)-3-ethyl-4-fluoro-5-oxopyrrolidin-2-yl]methoxy}-4-fluoro-7-methoxyisoquinoline-6-carboxamide] the same measures were 0.1 nM and 3.9 nM.
For `CC[C@@H]1[C@H](F)C(=O)N[C@@H]1COc1nccc2cc(C(N)=O)c(OC)c(F)c12` [Example 361, 1-{[(2S,3S,4S)-3-ethyl-4-fluoro-5-oxopyrrolidin-2-yl]methoxy}-8-fluoro-7-methoxyisoquinoline-6-carboxamide] the same measures were 4.8 nM and 27 nM.
Turning to `CC[C@@H]1CC(=O)N[C@@H]1COc1ncc(F)c2cc(C(N)=O)c(OC)cc12` [Example 362, 1-{[(2S,3R)-3-ethyl-5-oxopyrrolidin-2-yl]methoxy}-4-fluoro-7-methoxyisoquinoline-6-carboxamide], the half-maximal inhibitory concentration (IC50) in experiment [1] worked out at 1.1 nM; in experiment [2], 28 nM.
